Test results reported in US7935525B2, “Inhibition of ATF2 activity to treat cancer” (Mount Sinai School of Medicine, priority 2001, dated 2011).
“Also recorded” adds a separate entry of the source. No end group written: not given here.

Legend:
[1] = test system: MCF7 breast cancer-derived cell line; assay: Apoptosis by FACS (hypodiploid fraction); format: cell-based, human; settings: peptide-expressing MCF7
Procedure: [Worded in the source for another cell line; this cell line is reported under the same test.] (§1) Treatment and apoptosis studies of stably transfected melanoma cells. Cells were exposed to UVC at 75 J/m^2 as previously described (Ronai, Z., et al., Oncogene 1998; 16:523-531). SB203580 (1-10 μM) (Calbiochem®, San Diego, Calif.), NCS (50-100 ng/ml) and mitomycin C (MMC) (0.2-1 μM) were used to treat melanoma cells. Flow cytometric analysis was performed on a FACSCalibur™ flow cytometer (Becton Dickinson) using CellQuest™ software as described previously (Nicoletti et al., J. Immunol. Methods 1991; 139:271-279). Cells were pelleted and resuspended in 0.5 ml of hypotonic buffer with 0.1% Triton X-100 containing PI (40 μg/ml) and DNase-free RNase A (1 mg/ml). Cells were incubated at 37° C. for 30 min and analyzed on a FACSCalibur™ flow cytometer (Becton Dickinson). The percentage of cells to the left of the diploid G0/1 peak, characteristic of hypodiploid cells that have lost DNA, was defined as the percentage of apoptotic cells. Analysis was performed with light scatter gating. Surface expression of Fas was determined using anti-Fas-PE antibody (PharMingen® CA) and flow cytometric analysis. Cell surface expression is measured as mean fluorescence intensity (MFI).

[2] = test system: Adriamycin-resistant MCF7 cell line (MCF7-Adr); assay: Apoptosis by FACS (hypodiploid fraction); format: cell-based, human; settings: peptide-expressing MCF7-Adr; neo controls 3-fold; 36 h
Procedure: [Worded in the source for another cell line; this cell line is reported under the same test.] as §1

[3] = test system: FEMX cells; assay: Apoptosis by FACS (hypodiploid fraction); format: cell-based, human
Procedure: as §1

[4] = test system: WM1552 early-phase melanoma cell line; assay: Apoptosis by FACS (hypodiploid fraction); format: cell-based, human; settings: peptide-expressing WM1552; UV-C 75 J/m2; 36 h
Procedure: as §1

[5] = test system: SW1 tumors; assay: cDNA microarray expression profiling of SW1 tumors; format: in vivo, mouse
Procedure: cDNA microarray hybridizations. The 10 k mouse Gem 2 gene set (Incyte Genomics Inc, Palo Alto Calif.) was printed at the NCI on poly-L lysine coated glass using Biorobotics TASII arrayer (Cambridge, England). All protocols for the manufacturing and hybridization of microarrays are available at the NCI web site. Approximately 20 μg of total RNA was used in the reverse transcription reaction to directly label the probe with either Cy-5 dUTP or Cy-3 dUTP (Amersham®). Hybridizations were performed at 65° C. for 12-18 h in a hybridization volume of […]. The hybridized arrays were scanned using an Axon GenePix 4000® scanner (Union city, CA) and fluorescent data were collected using GenePix™ software.
Data Analysis. The axon image data for each microarray was uploaded to the NCI mAdb database for subsequent analysis using a variety of statistical web based tools. Gene clustering analysis was performed using the clustering algorithm and tree view software developed by Mike Eisen (Stanford, Calif.).

[6] = test system: ATF2; assay: ATF2 phosphorylation in peptide-expressing melanoma cells; format: cell-based, human; settings: vs control vector cells
[7] = test system: SW1 melanoma tumors; assay: Growth of SW1 tumors in FasL-deficient GLD mice; format: in vivo; settings: compared with C3H
Procedure: (§2) Tumor growth and metastasis evaluation in vivo. Cell lines established in culture to constitutively or inducibly express the peptide were injected into mice subcutaneously (S.C.). LU1205, FEMX and SW-1 cells that expressed control or peptide II were trypsinized, resuspended in PBS and injected SC (1×10^6) into 6-7 week old mice in the lower flank. When the tumor reached the size of about 50 mm^3, 5 μM of SB203580 was injected into four areas of the LU1205 tumors every 4 days during a 2-week period. For FEMX tumors UCN-01 (2.5 mg/kg) was fed by gavage twice a day, three times per week for a total of 2 weeks. Tumor growth was monitored every two days. SW-1 cells expressing peptide II under tet-inducible vector were injected SC (1×10^6). When tumors reached a size of about 50 mm^3, the mice received doxycycline in their drinking water ([…]) for a total of 2-4 weeks. At the end of the experiment, the tumors were excised and weighed. The lungs and other organs were subjected to histopathological examination to detect metastatic lesions.

[8] = test system: SW1 melanoma tumors; assay: Growth and metastasis of SW1 tumors constitutively expressing peptide, C3H mice; format: in vivo
Procedure: as §2

[9] = test system: LU1205 cells; assay: Apoptosis by FACS (hypodiploid fraction); format: cell-based, human; settings: peptide-expressing LU1205
Procedure: as §1

[10] = test system: SW1 cells; assay: Thymidine incorporation (DNA synthesis); format: cell-based, mouse; settings: peptide-expressing vs control cells
[11] = test system: Fas protein; assay: Western blot of overall Fas protein in melanoma cells; format: cell-based; settings: peptide-expressing melanoma cells
[12] = test system: LU1205 tumor cells; assay: Growth of transplanted LU1205 tumors in mice; format: in vivo
Procedure: as §2

[13] = test system: TRE-based promoter (c-Jun/AP1); assay: TRE-Luc reporter in c-Jun wild-type fibroblasts; format: cell-based
Procedure: [Worded in the source for another cell line; this cell line is reported under the same test.] Transient transfection and transcriptional analysis. Mouse melanoma tumors grown in culture were transfected with control vector or peptide II expressing luciferase or β-galactosidase constructs (Bhoumik et al., Clin. Cancer Res. 2001; 7(2):331-42). Transient transfection of different reporter constructs (0.5 cg) with expression vectors and pCMV-Cgal (0.25 Cg) into 5×10^5 melanoma cells was performed using Lipofectamine™ (Life Technologies-BRL). Transfection of the Jun2-luciferase construct permitted us to monitor activity of ATF2 and c-Jun. Jun2-Luc and TRE-Luc constructs were previously described (van Dam H., et al., EMBO J. 1993; 12:479-487; and van Dam H., et al., EMBO J. 1995; 14:1798-1811). Luciferase activity was determined using the Luciferase assay system (Promega®, Madison, Wis.) and normalized on the basis of β-galactosidase (β-Gal) levels in transfected cells. Proteins were prepared for β-Gal and Luciferase analysis at the selected time points after transfection.

[14] = tumors expressing peptide vs control vector

For “peptide II: N-terminal polypeptide fragment of ATF2, amino acid residues 50-100, expressed from pcDNA3 with HA-penetratin tag (EMTLKFGPARNDSVIVADQTPTPTRFLKNCEEVGLFNELASPFENEFKKAS; also: HA-penetratin tag, position not given here; UniProt P15336 50-100, looked up, fragment)”, the “increase in sensitivity to UCN-01 elicited apoptosis” value [1] was about 2 fold, the “increase in degree of apoptosis following UV-treatment relative to non-irradiated cells” value ([1]; neo control 4-fold, 36 h) was about 9 fold and the “effect on the basal level of apoptosis” value ([1]; no treatment) was “minimal effect”. The “increase in apoptosis following UV-treatment” value [2] was 8 fold, the “increase in the degree of UCN-01-elicited apoptosis” value ([3]; peptide-expressing FEMX vs parent) was over 3 fold and the “apoptotic fraction of UV-treated cells” value ([3]; peptide-expressing FEMX, UV-C 75 J/m2, 36 h, neo control 13%) was 28%. For the same substance, the “sensitization to UV-induced apoptosis” value [4] was “no longer was able to elicit sensitization”, the “expression of ATF2” value ([5]; four independent experiments) was “downregulated” and the “expression of ATF4 transcripts” value ([5]; four independent experiments) was “increase”. For the same substance, the “transcripts of interleukin-1 beta, cullin 3, kinesin-associated protein 3, ATF3 and membrane metallo-endopeptidase” value ([5]; tumors expressing peptide) was “up-regulated”, the “transcripts of tyrosine kinase 2, metallothionein 2 and ubiquitin-specific protease 18” value ([5]; tumors expressing peptide) was “downregulated” and the “expression of Fas-associated genes” value [5, 14] was “Downregulation”. The “expression of growth-associated genes” value [5, 14] was “consistent downregulation”, the “expression of interferon-associated genes” value [5, 14] was “consistent downregulation” and the “expression of tumor necrosis factor-related genes (and other tumor antigens)” value [5, 14] was “strongly upregulated”. The “ATF2 phosphorylation after UV-treatment” value ([6]; UV-treated) was “reduced”, the “degree of ATF2 phosphorylation” value ([6]; non-stressed growth conditions) was “higher degree of ATF2 phosphorylation” and the “blocking growth of SW1 tumors” value [7] was “as efficient in blocking growth”. The tumor size ([8]; 3-week period, control parent tumor 1800 mm^3) was 100 mm^3, the tumor size ([8]; SC injection, analyzed three weeks later) was “very small tumors” and the average tumor size ([8]; at 72 days) was “about 1200 mm^3”. For the same substance, the “time for which tumor growth was completely blocked” value ([8]; constitutive expression) was “up to 35 days”, the “apoptosis in tumors (tunnel assay)” value ([8]; excised SW1 tumors) was “substantially higher level of apoptosis” and the metastasis ([8]; monitored up to 72 days) was “no metastasis was seen”. For the same substance, the “increase in apoptosis comparable to neo expressing cells” value ([9]; Adriamycin + verapamil) was 10 fold, the “increase in degree of apoptosis over control neo cells given Adriamycin and verapamil” value ([9]; Adriamycin + verapamil) was 50% and the “apoptotic fraction of UV-treated cells” value ([9]; UV-C 75 J/m2, 36 h, neo control 15%) was 38%. For the same substance, the “increase in the degree of cell death” value ([9]; higher doses (10 μM) of SB203580, 36 h) was “greater than 6 fold”, the “increase in cell death” value ([9]; low doses of SB203580, 36 h) was 3 fold and the “increase in the sensitivity to UV-induced apoptosis” value ([9]; treatment with JAK inhibitor AG490) was 3 fold. For the same substance, the “reduction in DNA synthesis level” value [10] was 50%, the “overall level of Fas protein” value [11] was “increase in the overall level of Fas protein” and the “inhibition of tumor growth” value ([12]; combination: peptide-expressing LU1205 + SB203580) was “significant inhibition of tumor growth; also recorded: more effective”. The tumor cell growth ([12]; single agent: inhibitor injected into tumor, or peptide expressed in tumor cells) was “grew much more slowly” and the “increase in the activities of TRE-Luc” value [13] was 200 fold.
